In patent US20250213528A1, “5-METHOXY-N,N-[…][…] THE TREATMENT OF ANXIETY” (GH RESEARCH IRELAND LIMITED, priority 2022, published 2025):

How the values were obtained:
[1] = system: Salmonella typhimurium TA98, TA100, TA1535 and TA1537; test: Bacterial mutation test, Salmonella typhimurium; format: cell-based; settings: up to 5000 μg/plate, absence and presence of rat liver S-9
Protocol: (§1) These conditions included treatments at concentrations up to 5000 μg/plate (the maximum recommended concentration according to current regulatory guidelines), in the absence and in the presence of a rat liver metabolic activation system (S-9).

[2] = system: Escherichia coli WP2 uvrA pKM101; test: Bacterial mutation test, Escherichia coli; format: cell-based; settings: up to 5000 μg/plate, absence and presence of rat liver S-9
Protocol: as §1

[3] = Pharmacokinetics of 5-MeO-DMT and bufotenine after inhalation of 5-MeO-DMT; format: in vivo, human
[4] = system: patients with postpartum depression (PPD); test: Clinical trial of inhaled 5-MeO-DMT in postpartum depression, one patient, IDR 6 mg then 12 mg; format: in vivo, human; settings: n=1
Description: Maternal functioning can, for instance, be assessed using the Barkin Index of Maternal Functioning (BIMF). This index was designed to measure functioning in the year after childbirth. The BIMF is a 20-item self-report measure of functioning. Each item is assigned a score between 0 and 6 so that the maximum total score is 120. The higher the score, the better maternal functioning is rated.
The single-arm, open-label clinical trial will involve 15 adult female patients with clinically diagnosed postpartum depression (PPD).
The second dose (12 mg) will only be administered if: • a. […] The 6 mg dose was safe and well-tolerated according to the investigator, • c. Any psychoactive effects (PsE) of the prior dose have subsided, and • d. Pre-dose vital parameters and forced expiratory volume in one second (FEV1) are in normal range, or if outside of the normal range, are not clinically significant according to the investigator. • 3. Similarly, a third dose (18 mg) will only be administered if: • a. […] The 12 mg dose was safe and well-tolerated according to the investigator, and • c. Any PsE of the prior dose have subsided, and • d. Pre-dose vital parameters and forced expiratory volume in one second (FEV1) are in normal range, or if outside of the normal range, are not clinically significant according to the investigator.
The patients will be assessed for a peak psychedelic experience (based on a patient-scored visual analogue scale, the PE scale), sedation, and other endpoints after dosing. Follow-up visits are planned for Day 1, and Day 7 after the dosing day.
The following criteria must be met by all patients considered for clinical trial participation: • 1. Is female and in the age range between 18 and 45 years (inclusive) at screening. • 2. Has a body mass index (BMI) in the range of 18.5 and 35 kg/m^2 (inclusive) at screening. • 3. Meets the trial criteria for PPD as assessed by a trial psychiatrist or registered psychologist: • a. Diagnosis of Major Depressive Disorder without psychotic features, confirmed by the Mini-International Neuropsychiatric Interview (MINI), with peri-partum onset that began no earlier than gestation and no later than the first 4 weeks postpartum. • b. Has a Montgomery-Åsberg Depression Rating Scale (MADRS) total score of equal to or greater than 28 at screening and pre-dose on Day 0. • 6. […] Patients must have a negative pregnancy test at screening and on the pre-test day (Day-1). • 5. Is willing to delay start of other antidepressant or anxiety medication until after the end of the trial at Day 7 and agrees to keep any psychotherapy unchanged during the trial.
A potential patient who meets any of the following key exclusion criteria will be excluded from participation in this trial: • 1. Has, based on history, psychiatric assessment, and evaluation of the MINI, a current or prior diagnosis of bipolar disorder, a manic or hypomanic episode, a psychotic disorder, Major Depressive Disorder (MDD) or other mood disorder with psychotic features, obsessive compulsive disorder, post-traumatic stress disorder (PTSD), autism spectrum disorder, borderline personality disorder, schizophrenia, delusional disorder, paranoid personality disorder, schizoaffective disorder, clinically significant intellectual disability, or any other psychiatric comorbidity that renders the patient unsuitable for the trial according to the investigator's judgment. • 2. Has one or more first or second degree relatives with a current or previously diagnosed bipolar disorder, psychotic disorder or other mood disorder (including MDD) with psychotic features. • 3.

Q: With `COc1ccc2[nH]cc(CCN(C)C)c2c1` [5-MeO-DMT] as the molecule, how does the mutation induction [1] read?
A: did not induce mutation

Q: What about the mutation induction [2] of the same molecule?
A: did not induce mutation

Q: What about the “detectability in the plasma” value ([3]; 3 hours after inhalation, whole dose range 6, 12, 18 mg) of the same molecule?
A: no longer detectable

Q: And the “pharmacokinetic measurements under uptitration” value ([3]; dosing schemes relying on uptitration, compared with single doses)?
A: Substantially similar results

Q: And the “standard criteria for MADRS remission (MADRS total score equal or less than 10)” value [4]?
A: fulfilled

Q: What about the “standard criteria for MADRS response (at least 50% improvement from baseline)” value [4] of the same molecule?
A: fulfilled

Q: And the “time to clinical remission after administration” value [4]?
A: ≤ 2 h

Q: And the “durability of clinical response” value ([4]; 5-MeO-DMT given on one day only)?
A: sustained over the 7-day follow-up period

Q: And the “Total MADRS Improvement” value ([4]; 2 hr)?
A: 24

Q: And the “BPRS Tension Improvement” value ([4]; Day 1)?
A: 5

Q: And the “Total MADRS Improvement” value ([4]; Day 1)?
A: 29

Q: And the “Total MADRS Improvement” value ([4]; Day 7)?
A: 28

Q: What about the “BIMF item 19 As time goes on, I am getting better at taking care of my baby, score” value ([4]; Day 7, Day 0 score 0) of the same molecule?
A: 1

Q: And the “BIMF item 13 I am taking good care of my physical needs, score” value ([4]; Day 7, Day 0 score 4)?
A: 5

Q: And the “BIMF item 5 I am able to relax and enjoy time with my baby, score” value ([4]; Day 7, Day 0 score 5)?
A: 6

Q: And the “BIMF item 9 I am getting enough encouragement from other people, score” value ([4]; Day 7, Day 0 score 5)?
A: 6

Q: What about the “BIMF item 10 I trust my own feelings (instincts) when it comes to taking care of my baby, score” value ([4]; Day 7, Day 0 score 5) of the same molecule?
A: 6

Q: What about the “BIMF item 17 I am able to take care of my baby and my other responsibilities, score” value ([4]; Day 7, Day 0 score 5) of the same molecule?
A: 5

Q: And the “BIMF functional domain Adjustment score” value ([4]; Day 7, Day 0 score 5, maximum possible 12)?
A: 6

Q: And the “BIMF item 3 I am comfortable with the way I've chosen to feed my baby, score” value ([4]; Day 7, Day 0 score 6)?
A: 6

Q: And the “BIMF item 6 There are people in my life that I can trust to care for my baby when I need a break, score” value ([4]; Day 7, Day 0 score 6)?
A: 6

Q: And the “BIMF item 8 I am getting enough adult interaction, score” value ([4]; Day 7, Day 0 score 6)?
A: 6

Q: And the “BIMF item 12 I am taking good care of my baby's physical needs, score” value ([4]; Day 7, Day 0 score 6)?
A: 6

Q: What about the “BIMF item 14 I make good decisions about my baby's health and well being, score” value ([4]; Day 7, Day 0 score 6) of the same molecule?
A: 6

Q: And the “BIMF item 20 I am satisfied with the job I am doing as a new mother, score” value ([4]; Day 7, Day 0 score 6)?
A: 5

Q: What about the “BIMF functional domain Self Care score” value ([4]; Day 7, Day 0 score 9, maximum possible 18) of the same molecule?
A: 13

Q: And the “BIMF functional domain Infant Care score” value ([4]; Day 7, Day 0 score 12, maximum possible 12)?
A: 12

Q: And the “BIMF functional domain Mother-Child Interaction score” value ([4]; Day 7, Day 0 score 15, maximum possible 18)?
A: 17

Q: What about the “BIMF functional domain Social Support score” value ([4]; Day 7, Day 0 score 17, maximum possible 18) of the same molecule?
A: 18

Q: What about the “BIMF functional domain Management score” value ([4]; Day 7, Day 0 score 28, maximum possible 36) of the same molecule?
A: 33

Q: And the “BIMF functional domain Psychological Well-being score” value ([4]; Day 7, Day 0 score 44, maximum possible 60)?
A: 53

Q: And the “BIMF total score improvement” value ([4]; Day 7, from 92 to 105 of possible 120)?
A: 14%

Q: And the “BIMF TOTAL, Δ (Day 7)” value ([4]; Day 7 vs Day 0)?
A: 13

Q: What about the “BIMF item 3 I am comfortable with the way I've chosen to feed my baby, Δ (Day 7)” value ([4]; Day 7 vs Day 0) of the same molecule?
A: 0

Q: What about the “BIMF item 5 I am able to relax and enjoy time with my baby, Δ (Day 7)” value ([4]; Day 7 vs Day 0) of the same molecule?
A: 1

Q: And the “BIMF item 6 There are people in my life that I can trust to care for my baby when I need a break, Δ (Day 7)” value ([4]; Day 7 vs Day 0)?
A: 0

Q: What about the “BIMF item 8 I am getting enough adult interaction, Δ (Day 7)” value ([4]; Day 7 vs Day 0) of the same molecule?
A: 0

Q: And the “BIMF item 9 I am getting enough encouragement from other people, Δ (Day 7)” value ([4]; Day 7 vs Day 0)?
A: 1

Q: What about the “BIMF item 10 I trust my own feelings (instincts) when it comes to taking care of my baby, Δ (Day 7)” value ([4]; Day 7 vs Day 0) of the same molecule?
A: 1

Q: And the “BIMF item 11 I take a little time each week to do something for myself, Δ (Day 7)” value ([4]; Day 7 vs Day 0)?
A: 1

Q: What about the “BIMF item 12 I am taking good care of my baby's physical needs, Δ (Day 7)” value ([4]; Day 7 vs Day 0) of the same molecule?
A: 0

Q: And the “BIMF item 13 I am taking good care of my physical needs, Δ (Day 7)” value ([4]; Day 7 vs Day 0)?
A: 1

Q: What about the “BIMF item 14 I make good decisions about my baby's health and well being, Δ (Day 7)” value ([4]; Day 7 vs Day 0) of the same molecule?
A: 0

Q: What about the “BIMF item 17 I am able to take care of my baby and my other responsibilities, Δ (Day 7)” value ([4]; Day 7 vs Day 0) of the same molecule?
A: 0

Q: And the “BIMF item 19 As time goes on, I am getting better at taking care of my baby, Δ (Day 7)” value ([4]; Day 7 vs Day 0)?
A: 1

Q: What about the “BIMF item 20 I am satisfied with the job I am doing as a new mother, Δ (Day 7)” value ([4]; Day 7 vs Day 0) of the same molecule?
A: −1

Q: What about the “BPRS Tension Improvement” value ([4]; Discharge) of the same molecule?
A: 5

Q: With `CN(C)CCc1c[nH]c2ccc(O)cc12` [bufotenine] as the molecule, how does the “bufotenine blood concentration above LLOQ” value ([3]; after inhaled 5-MeO-DMT, LLOQ 25 pg/ml) read?
A: Only in few samples

Q: What about the “bufotenine blood concentrations under uptitration” value ([3]; subjects receiving an uptitration scheme included) of the same molecule?
A: Substantially similar observations
